Source: PMC5430874 (Scientific Reports, 2017)
Changes are numbered by the printed parent chain. Read-outs that look alike come from different tables or passages of the source. One block for each molecule: values may come before it.

Experiments:
GPR139 E108A^3×32 = target: T1, GPR139 E108A^3×32 (Homo sapiens, UniProt Q6DWJ6, E108A); assay: Fluo-4 Ca2+-assay, GPR139 mutant E108A; assay type: cell-based; settings: for EC50: E108A mutant
T1 construct: mGluR5 signal peptide (N); expressed in transfected cells; host or cells: HEK293
T1 sequence (Q6DWJ6 2-353 E108A limits assumed): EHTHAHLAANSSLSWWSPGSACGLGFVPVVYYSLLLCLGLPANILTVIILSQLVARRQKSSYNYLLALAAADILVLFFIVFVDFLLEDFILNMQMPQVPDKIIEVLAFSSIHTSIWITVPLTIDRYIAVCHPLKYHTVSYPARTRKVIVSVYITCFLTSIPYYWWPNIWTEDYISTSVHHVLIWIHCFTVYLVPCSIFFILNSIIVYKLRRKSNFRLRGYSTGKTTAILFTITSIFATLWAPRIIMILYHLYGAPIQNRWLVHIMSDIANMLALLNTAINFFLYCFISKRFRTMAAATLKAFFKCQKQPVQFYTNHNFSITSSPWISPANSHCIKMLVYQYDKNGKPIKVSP
Text: (§1) To study the influence of specific amino acids in the predicted binding pocket on receptor function, the desired mutations were introduced into an N-terminally c-myc-tagged wild type human GPR139 (NM_001002911.3) in the pEGFP-N1 vector (BD Biosciences)[32], [33]. As previously described, these plasmids carry the signal peptide of mGluR5 to promote cell surface expression followed by a c-myc epitope to enable detection of total and surface expression by ELISA, followed by an engineered MluI and NotI site for easy insertion of the receptor of interest. Furthermore, the start-codon in the GPR139 sequence was deleted to ensure c-myc-tagging. Mutagenesis was designed in Serial Cloner 2.6 (© Franck Perez [SerialBasics]) and carried out by GenScript (USA). All mutated residues are illustrated in Supplementary Fig. 1b. An untagged GPR139(WT) in pEGFP-N1 was also generated to ensure that the c-myc-tag had no influence on GPR139(WT) function.
(§2) All GPR139 mutants were transfected into HEK293 cells. The HEK293 cells were grown in Dulbecco’s modified Eagle’s medium (DMEM) (Gibco, 41965) supplemented with 10% dialyzed fetal bovine serum (Gibco, 26400, United States origin), 100 units/mL penicillin and 100 μg/mL streptomycin (Gibco, 15140). HEK293 cells were reverse transfected using Lipofectamine2000 (Invitrogen). More specifically two mixtures were made: 1) 10 ng DNA/well + 25 μL Opti-MEM/well and 2) […] Lipofectamine2000/well + 25 μL Opti-MEM/well. The two mixtures were mixed and 50 μL/well was added directly in black 96-well plates with flat clear bottoms for the Fluo-4 Ca^2+-assay (Corning, Falcon, 353219) or in white Opaque 96-well Microplate (PerkinElmer Life, 6005680) for ELISA. 100 μL containing 20,000 cells were added to each well and incubated 48 hours before assays. All plates were coated with poly-D-lysine.
(§3) Compound 1a (1a) was kindly provided by H. Lundbeck A/S, Denmark. […] Both compounds were dissolved to 20 mM in DMSO (Sigma, D2650) and subsequently diluted in a HEPES buffer (HBSS (Gibco, 14025) supplemented with 20 mM HEPES + 1 mM MgCl2 + 1 mM CaCl2, pH = 7.4) to a final concentration of 0.5% DMSO in the Fluo-4 Ca^2+-assay. The DMSO level was kept constant for all concentrations of both compounds. DMSO was confirmed not to have any activity by itself at this concentration. L-Trp (T0254) and L -Phe (P2126) were obtained from Sigma-Aldrich and dissolved in buffer.
(§4) The Ca^2+ measurements were preformed using the Fluo-4 NW Calcium Assay Kit (Invitrogen, Molecular Probes, F36206) as previously described. Briefly, the Fluo-4 dye loading solution was prepared according to the manufacturer’s instructions by dissolving it in HEPES-buffer supplemented with 2.5 mM probenecid. 50 μL dye loading solution was added to each well. Cells were incubated with the Fluo-4 dye for 60 min at 37 °C, then washed with 100 μL HEPES-buffer. 100 μL HEPES-buffer supplemented with 2.5 mM probenecid was then added to each well and incubated in 10 minutes at 37 °C before measurement. […] Intracellular calcium changes were recorded as indicated on either a NOVOstar (BMG Labtech) at 37 °C with an excitation filter of 485 nm and an emission filters 520 nm or a FlexStation 3 Benchtop Multi-Mode Microplate Reader (Molecular Devices) at 37 °C with an excitation wavelength of 485 nm and emission of 525 nm.
(§5) All pharmacological data have been analyzed by using Prism 6.0 (GraphPad Software Inc., San Diego). Fitting of concentration response curves was performed by non-linear regression log(agonist) vs. response (four parameters). Pooled data are shown with standard error of the mean (S.E.M.) and data showing one representative are shown with standard deviation (S.D.). Changes in potency (pEC50) and span of myc-GPR139(WT) in comparison to untagged GPR139(WT) was statistically analyzed with a paired t-test and significance was accepted at p < 0.05. The ELISA data were normalized to surface expression of myc-GPR139(WT) (100%). […]

GPR139 W241H^6×48 = target: T2, GPR139 W241H^6×48 (Homo sapiens, UniProt Q6DWJ6, W241H); assay: Fluo-4 Ca2+-assay, GPR139 mutant W241H; assay type: cell-based; design: key to Emax ± SEM: NE: no effect (loss of activity); settings: for EC50: W241H mutant
T2 construct: mGluR5 signal peptide (N); expressed in transfected cells; host or cells: HEK293
T2 sequence (Q6DWJ6 2-353 W241H limits assumed): T1 sequence (Q6DWJ6 2-353 E108A limits assumed) with A107E, W240H
Text: as §1, §2, §3, §4, §5

[1] = three independent experiments, read-out: pEC50 ± SEM (converted)
[2] = only one experiment, read-out: pEC50 (converted)

- change of potency (GPR139 E108A^3×32; E108A mutant versus WT): no effect
- EC50 (GPR139 E108A^3×32; [1]): 0.209 µM
- Emax (GPR139 E108A^3×32; E108A, normalized to buffer (0%) and 8 μM 1a (100%) on WT, read-out: Emax ± SEM): 151 ± 9%
- EC50 (GPR139 W241H^6×48): > 7.94 µM
- change of potency (GPR139 W241H^6×48; W241H mutant versus WT): markedly reduced potency
- Emax at 8 µM (GPR139 W241H^6×48; W241H, at 8 μM, normalized to buffer (0%) and 8 μM 1a (100%) on WT): 27 ± 10%
SMILES: COc1cc(OC)cc(C(=O)NNC(=O)Nc2cccc3ccccc23)c1 [Compound 1a]

SMILES: N[C@@H](Cc1c[nH]c2ccccc12)C(=O)O [L-Trp, tryptophan]
- EC50 (GPR139 E108A^3×32; [2]): 166 µM
- Emax (GPR139 E108A^3×32; E108A, normalized to buffer (0%) and 10 mM Trp (100%) on WT, n=1, read-out: Emax): 125%
- EC50 (GPR139 W241H^6×48): > 10000 µM
- Emax ± SEM (GPR139 W241H^6×48; W241H, at 10 mM, normalized to buffer (0%) and 10 mM Trp (100%) on WT): NE^#

- EC50 (GPR139 E108A^3×32; [1]): 0.151 µM
- Emax (GPR139 E108A^3×32; read-out: Emax ± SEM): 112 ± 10%
- Emax at 100 µM (GPR139 W241H^6×48): 12 ± 3%
- EC50 (GPR139 W241H^6×48): > 100 µM
SMILES: C[C@@H](NC(=O)CNC(=O)c1cccc(Cl)c1)c1ccccc1 (racemic) [Compound 7c]

- EC50 (GPR139 E108A^3×32; [2]): 251 µM
- Emax (GPR139 E108A^3×32; E108A, normalized to buffer (0%) and 30 mM Phe (100%) on WT, n=1, read-out: Emax): 127%
- EC50 (GPR139 W241H^6×48): > 31600 µM
- Emax ± SEM (GPR139 W241H^6×48; W241H, at 30 mM, normalized to buffer (0%) and 30 mM Phe (100%) on WT): NE^##
SMILES: N[C@@H](Cc1ccccc1)C(=O)O [L-Phe, phenylalanine]
